Read-outs that look alike come from different tables or passages of the source.

This note sets out measurements from patent publication US8716355B2, “Hydroxylated tolans and related compounds in the treatment of a cancer” (Kent State University, priority 2007, dated 2014).

In one data set the test system is MDAH2274. Briefly: MTT cytotoxicity, MDAH2274 ovarian cancer cells. The format is cell-based, human. The method, then: As a first step, the antitumor activity of the tolans was assessed against a panel of three cancer cells lines that produce solid tumors upon implantation into animals. DU145 is an androgen-independent prostate cancer cells. T24 is a transitional cell bladder carcinoma cell. MDAH2274 (“MDAH) is an endometroid ovarian adenocarcinoma cell. To assess the selectivity of this antitumor activity, the toxicity of the tolans to normal human fibroblasts (MHRF) was examined.
Cell killing was evaluated using the colorimetric MTT assay. The assay measures the formation of a colored product from a chromogenic precursor, the tetrazole 3-[4,5-dimethylthiazol-2-yl]-2,5 diphenyltetrazolium bromide (MTT). The yellow MTT is reduced to purple formazan in the mitochondria of living cells. A solubilization solution (typically dimethyl sulfoxide or sodium dodecyl sulfate in dilute hydrochloric acid) is added to dissolve the insoluble purple formazan product into a colored solution. The absorbance of this colored solution is quantified by measuring at a certain wavelength (usually between 500 and 600 nm) by a spectrophotometer. […] This MTT assay is used widely to assess the cytotoxicity and selectivity of compounds such as anti-cancer drugs. The assay is suitable for rapid toxicity characterization of a test agent such as a drug formulation. […] A lower CD50 indicates a greater cytotoxic activity (as a lower amount of the agent is needed to achieve a fixed level of cytotoxicity). Two agents can be compared by examining the fold-increase or decrease in their CD50 values.

The subject of the next data set is DU145. As to the kind of experiment: MTT cytotoxicity, DU145 prostate cancer cells. The format is cell-based, human. To be noted: for IC50: MTT, read-out: CD50 against DU145. The method, then: As a first step, the antitumor activity of the tolans was assessed against a panel of three cancer cells lines that produce solid tumors upon implantation into animals. DU145 is an androgen-independent prostate cancer cells. T24 is a transitional cell bladder carcinoma cell. MDAH2274 (“MDAH) is an endometroid ovarian adenocarcinoma cell. To assess the selectivity of this antitumor activity, the toxicity of the tolans to normal human fibroblasts (MHRF) was examined. Subsequently, studies with Tolan-3 (KST-201) were expanded to test its action on a wide range of tumor cell lines.
(§1) Cell killing was evaluated using the colorimetric MTT assay. The assay measures the formation of a colored product from a chromogenic precursor, the tetrazole 3-[4,5-dimethylthiazol-2-yl]-2,5 diphenyltetrazolium bromide (MTT). The yellow MTT is reduced to purple formazan in the mitochondria of living cells. A solubilization solution (typically dimethyl sulfoxide or sodium dodecyl sulfate in dilute hydrochloric acid) is added to dissolve the insoluble purple formazan product into a colored solution. The absorbance of this colored solution is quantified by measuring at a certain wavelength (usually between 500 and 600 nm) by a spectrophotometer. The amount of purple formazan product generated is proportional to the number of viable cells (Mosmann, T., 1983, J. Immunol. Meth. 65:55-63; Wilson, A. P., Cytotoxicity and Viability Assays. In: Animal Cell Culture: A Practical Approach, 3rd ed. (Masters, J R W, ed.) Oxford University Press: Oxford, Vol. 1, pp. 175-219. 2000). This MTT assay is used widely to assess the cytotoxicity and selectivity of compounds such as anti-cancer drugs. The assay is suitable for rapid toxicity characterization of a test agent such as a drug formulation. […] A lower CD50 indicates a greater cytotoxic activity (as a lower amount of the agent is needed to achieve a fixed level of cytotoxicity). Two agents can be compared by examining the fold-increase or decrease in their CD50 values.

The next data set has as its system NF-κB p65. Briefly: NF-κB p65 DNA-binding activity in DU145 cells (ELISA). The format is cell-based, human. To be noted: for DNA binding of p65, % of basal activity: 100 μM. Here is the method: An ELISA kit (Pierce, Rockford, Ill.) was used to detect the active forms of NF-κB p65 by measuring its binding to a consensus DNA sequence. A primary antibody specific for p65 and a secondary horse-radish peroxidase (HRP)-conjugated antibody were used sequentially to produce immobilized p65-HRP complexes. A chemiluminescent substrate for HRP was added and the reaction read using the Fluoroskan Ascent FL plate reader
An ELISA kit (Pierce, Rockford, Ill.) was used to detect the active forms of NF-κB p65 by measuring its binding to a consensus DNA sequence. […] As controls, untreated cells were prepared under the same conditions. Cells were collected by scraping and incubated in ice-cold RIPA lysis buffer containing 1% NP40, 0.5% sodium deoxycholate, 0.1% SDS and protease inhibitor cocktail. After centrifugation, the supernatant was transferred to a streptavidin-coated 96-well plate. Active p65 in the sample binds to the immobilized DNA molecules.
To ensure the signal specificity, competitive DNA fragments containing a NF-κB binding site were used to prevent the binding of NF-κB to the consensus sequence. A primary antibody specific for p65 and a secondary HRP-conjugated antibody were added to each well sequentially, resulting in an immobilized p65-HRP complex. Unbound antibodies were washed away. A mixture of luminol/enhancer and peroxide solution was added into each well as a chemiluminescent substrate for HRP. The chemiluminescent signal, proportional to the relative amount of active p65 in the sample, was detected using the Fluoroskan Ascent FL plate reader (Thermo, Waltham, Mass.).
DNA sequences containing p65-binding site were immobilized to wells of 96-well plates, allowing activated p65 to bind. After washing, the amount of bound p65 was detected and quantified by the above method. The DNA-binding of active p65 was determined by the intensity of chemiluminescence produced by DNA-p65-HRP complex immobilized on well surfaces. The results represent the mean±SD of triplicate determinations. An inhibitor of p65 binding to DNA was added to confirm specificity. […]

For the next data set, the system named is SKMEL28. As to the kind of experiment: MTT cytotoxicity, SKMEL28 melanoma. To be noted: Homo sapiens, SK-MEL-28, 72 h; 3 Days; read-out: CD50 (μM) SKMEL28. It is filed as cell-based. Here is the method: as §1, with “Two agents can be compared by examining the fold-increase or decrease in their CD50 values.” left out
Where [1] appears, read: Homo sapiens, 24 h, MTT, 1 day incubation, read-out: CD50 against MDAH, compound tested individually.
Setting [2] is: Homo sapiens, 48 h, MTT, 2 days incubation, read-out: CD50 against MDAH, compound tested individually.
Setting [3] is: Homo sapiens, 72 h, MTT, 3 days incubation, read-out: CD50 against MDAH, compound tested individually.
[4] abbreviates: MTT, 1 day incubation, read-out: CD50 against MDAH, compound tested individually.
Setting [5] is: Homo sapiens, DU-145, 24 h, 1 day incubation.
Where [6] appears, read: Homo sapiens, DU-145, 48 h, 2 days incubation.
[7] abbreviates: Homo sapiens, DU-145, 72 h, 3 days incubation.

Regarding `Oc1ccc(C#Cc2ccc(O)cc2)cc1` [KST-201, 4,4′-dihydroxytolan], the “Fold more potent in killing MDAH2274 cells vs. control MHRF fibroblasts” value in the data set on MDAH2274 is reported as 50 fold. In addition, the IC50 in the data set on MDAH2274 (setting [1]) came out at 22 µM; with MDAH2274 (Homo sapiens, 24 h, VC:KST-201 400:1, 1 day, read-out: CD50 (μM) of each Compound tested in combination, MDAH 2274), 1.16 µM; with MDAH2274 (setting [2]), 10.5 ± 2.7 µM; with MDAH2274 (Homo sapiens, 48 h, VC:KST-201 400:1, 2 days, read-out: CD50 (μM) of each Compound tested in combination, MDAH 2274), 0.97 ± 0.02 µM; in the data set with MDAH2274 (setting [3]), 3.1 µM; in the data set with MDAH2274 (Homo sapiens, 72 h, VC:KST-201 400:1, 3 days, read-out: CD50 (μM) of each Compound tested in combination, MDAH 2274) it was 0.98 µM. Also, the IC50 in the data set with MDAH2274 (MTT, 1 day incubation, listed as Hydroxytolan, read-out: CD50 against MDAH, compound tested individually) came out at 21.5 ± 7.4 µM; in the data set with MDAH2274 (MTT, 1 day incubation, listed as hydroxytolan, read-out: CD50 against MDAH, compound tested individually), 21.5 µM; in the data set with MDAH2274 (setting [4]), 21.5 ± 7.35 µM; in the data set on DU145 (setting [5]), 57 µM; in the data set with DU145 (setting [6]), 16.8 ± 0.63 µM; with DU145 (setting [7]), 9.4 µM. The IC50 with DU145 (1 day incubation) was 57.3 ± 0.81 µM; with SKMEL28 it was 82 ± 10 µM. The “Fold more toxic to MDAH 2274 ovarian cancer cells than resveratrol” value in the data set with MDAH2274 (Table 15 vs Table 14) amounted to 4.7 fold. The “Increase of cytotoxic potency in the combination, MDAH 2274” value in the data set with MDAH2274 (VC:KST-201 400:1, 1 day) was “about 20 fold”. Moreover, in the data set with DU145, the “Fold more potent against DU145 cells compared to control MHRF fibroblasts” value came to 16 fold. Further, in the data set on DU145 (Table 15 vs Table 14), the “Fold more toxic to DU145 prostate cancer cells than resveratrol” value amounted to 3 fold. For the same compound, in the data set on NF-κB p65 (12-hour treatment), the “Reduction of DNA-binding activity of NF-κB by at least 50%” value is recorded as “not sufficient to reduce DNA-binding activity of NF-κB”. Further, the “NF-κB inhibition compared with resveratrol” value in the data set with NF-κB p65 (24-hour treatment, 50 and 100 μM) is reported as “more effective inhibitor of NF-κB”.
On to `Oc1ccc(/C=C/c2cc(O)cc(O)c2)cc1` [Resveratrol, 3,5,4′-trihydroxy-trans-stilbene, reference compound], for which the IC50 in the data set on MDAH2274 (setting [1]) worked out at 37 µM; in the data set with MDAH2274 (setting [2]) it was 23.1 ± 0.14 µM; in the data set on MDAH2274 (setting [3]), 15 µM; in the data set on MDAH2274 (setting [4]), 36.9 ± 2.45 µM; in the data set on MDAH2274 (MTT, 3 days incubation, read-out: CD50 against MDAH, compound tested individually), 14.6 ± 0.12 µM; with DU145 (setting [5]), 92 µM. Moreover, the IC50 in the data set on DU145 (setting [6]) was found to be 58.2 ± 0.4 µM; in the data set on DU145 (setting [7]), 28 µM; with DU145 (1 day incubation), 92.2 ± 2.9 µM; in the data set with DU145 (3 days incubation), 27.9 ± 0.65 µM; with SKMEL28, 69 ± 1.2 µM. Further, the “DNA binding of p65, % of basal activity” value is 55.3% in the data set with NF-κB p65 (12 hours) and 40.2% with NF-κB p65 (24 hours). Also, the “DNA binding activity of p65, % of basal activity” value in the data set with NF-κB p65 (24-hour treatment at 5, 25 and 50 μM) is listed as around 80%.
